Consider two compounds from patent publication US20230117034A1, “PYRAZOLOTRIAZINES” (Bayer Aktiengesellschaft, priority 2019, published 2023).

The target of assay [1] is T1, CYCLIN K (nuclear staining in CAL-120 cells) (Homo sapiens, UniProt O75909).
T1 construct: endogenous in cells; host or cells: CAL-120 human breast cancer cells (DSMZ ACC 459)
Kind of assay: CYCLIN K nuclear protein level: immunofluorescence high content analysis (CAL-120). In kind it is cell-based. As to conditions: 24 h, 50% reduction of nuclear CCNK staining intensity, median, read-out: CYCLIN K degradation IF, DC50-[mol/l] (median). The method, boiled down:
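CAL-120 breast cancer cells treated in dose-response for 24 h at 37 °C, PFA-fixed and immunostained for cyclin K with Hoechst counterstain. Confocal imaging quantified nuclear intensity; DC50 is the concentration giving 50% reduction of nuclear CCNK staining, normalized to DMSO and control.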

A further assay concerns the target T2, CDK2/CycE (Homo sapiens, UniProt P24941).
T2 construct: purchased ProQinase GmbH (Freiburg, Germany); host or cells: insect cells (Sf9)
Put plainly: CDK2/CycE kinase assay (TR-FRET, 2 mM ATP). It counts as biochemical. To be noted: 2 mM ATP (high ATP); median; read-out: CDK2/CyclinE, 2 mM ATP (high ATP), IC50 (median). The method, boiled down:
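GST-tagged human CDK2 and CycE from Sf9 cells, about 10 ng/ml, pre-incubated 15 min at 22 °C with compound in Tris/HCl pH 8.0 buffer. Reaction with 2 mM ATP and 0.75 µM biotinylated peptide for 25 min at 22 °C. Phospho-RB antibody TR-FRET (665/620 nm ratio) read after 1 h; data normalised to no-inhibitor and no-enzyme controls.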
On the technique in general: Time-resolved FRET reads energy transfer from a long-lived donor to a nearby acceptor.

T1 sequence (O75909 whole entry): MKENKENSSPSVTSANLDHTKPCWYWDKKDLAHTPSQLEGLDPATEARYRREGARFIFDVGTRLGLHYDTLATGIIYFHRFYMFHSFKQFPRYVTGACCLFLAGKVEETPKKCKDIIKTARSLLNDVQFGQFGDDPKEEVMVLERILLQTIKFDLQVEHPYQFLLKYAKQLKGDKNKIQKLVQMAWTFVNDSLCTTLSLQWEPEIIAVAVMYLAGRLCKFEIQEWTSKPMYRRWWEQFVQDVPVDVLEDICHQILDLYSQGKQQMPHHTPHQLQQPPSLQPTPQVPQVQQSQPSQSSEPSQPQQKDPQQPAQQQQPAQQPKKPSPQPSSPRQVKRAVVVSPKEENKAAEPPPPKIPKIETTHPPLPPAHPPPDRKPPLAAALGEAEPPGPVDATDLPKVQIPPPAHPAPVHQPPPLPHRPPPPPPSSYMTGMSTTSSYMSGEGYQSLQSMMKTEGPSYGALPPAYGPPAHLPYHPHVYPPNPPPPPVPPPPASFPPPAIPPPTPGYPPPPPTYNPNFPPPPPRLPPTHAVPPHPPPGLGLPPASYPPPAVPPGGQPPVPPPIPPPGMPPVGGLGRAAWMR
T1 sequence (Q9NYV4 whole entry partner): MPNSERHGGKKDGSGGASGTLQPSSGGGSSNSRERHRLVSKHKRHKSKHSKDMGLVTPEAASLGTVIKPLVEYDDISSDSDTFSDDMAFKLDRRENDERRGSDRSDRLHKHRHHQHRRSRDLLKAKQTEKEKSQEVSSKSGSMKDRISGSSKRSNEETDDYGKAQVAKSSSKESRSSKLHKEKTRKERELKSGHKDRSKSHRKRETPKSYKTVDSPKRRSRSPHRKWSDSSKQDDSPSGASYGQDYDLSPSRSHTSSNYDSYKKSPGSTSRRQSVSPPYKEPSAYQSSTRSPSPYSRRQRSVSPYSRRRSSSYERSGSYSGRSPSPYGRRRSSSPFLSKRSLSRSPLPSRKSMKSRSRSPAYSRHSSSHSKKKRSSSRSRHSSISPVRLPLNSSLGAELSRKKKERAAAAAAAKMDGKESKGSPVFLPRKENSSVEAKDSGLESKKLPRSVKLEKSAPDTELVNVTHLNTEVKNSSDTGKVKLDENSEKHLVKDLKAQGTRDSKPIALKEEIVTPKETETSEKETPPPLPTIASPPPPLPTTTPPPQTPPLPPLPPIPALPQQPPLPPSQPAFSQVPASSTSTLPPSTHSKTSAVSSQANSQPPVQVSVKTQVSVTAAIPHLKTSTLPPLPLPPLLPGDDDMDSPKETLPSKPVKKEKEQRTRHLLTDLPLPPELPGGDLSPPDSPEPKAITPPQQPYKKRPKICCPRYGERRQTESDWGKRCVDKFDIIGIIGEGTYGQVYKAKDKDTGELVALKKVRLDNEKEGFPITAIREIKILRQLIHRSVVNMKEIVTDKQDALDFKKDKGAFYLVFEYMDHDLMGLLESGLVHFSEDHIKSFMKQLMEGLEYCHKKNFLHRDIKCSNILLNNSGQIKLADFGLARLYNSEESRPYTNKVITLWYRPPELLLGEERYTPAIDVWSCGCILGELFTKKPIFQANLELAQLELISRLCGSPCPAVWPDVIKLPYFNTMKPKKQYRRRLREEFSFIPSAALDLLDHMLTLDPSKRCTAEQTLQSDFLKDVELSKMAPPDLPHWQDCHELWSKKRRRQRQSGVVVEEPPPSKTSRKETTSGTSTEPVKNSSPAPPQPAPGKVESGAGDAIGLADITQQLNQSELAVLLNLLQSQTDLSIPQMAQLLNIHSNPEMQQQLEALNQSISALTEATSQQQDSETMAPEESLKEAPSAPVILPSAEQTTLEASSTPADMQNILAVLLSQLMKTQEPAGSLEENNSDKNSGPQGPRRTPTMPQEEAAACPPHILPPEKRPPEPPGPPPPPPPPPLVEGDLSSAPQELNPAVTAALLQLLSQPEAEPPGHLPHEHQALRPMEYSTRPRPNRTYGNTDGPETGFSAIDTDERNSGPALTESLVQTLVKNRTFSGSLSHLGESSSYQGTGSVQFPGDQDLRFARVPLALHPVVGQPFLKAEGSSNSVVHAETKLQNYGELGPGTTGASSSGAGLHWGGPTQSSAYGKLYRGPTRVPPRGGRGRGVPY

On to `Fc1ccc2[nH]c(CNc3nc(N4C[C@@H]5CCCN[C@@H]5C4)nc4c(C5CC5)cnn34)nc2c1F` [Example 171, 8-cyclopropyl-N-[(4,5-difluoro-1H-benzimidazol-2-yl)methyl]-2-[(4aS,7aS)-octahydro-6H-pyrrolo[3,4-b]pyridin-6-yl]pyrazolo[1,5-a][1,3,5]triazin-4-amine], for which the DC50 in assay [1] came out at 0.981 nM. Further, on CDK2/CycE, the IC50 is over 20000 nM.

With `CC1CN(c2nc(NCc3nc4ccccc4[nH]3)n3ncc(C(C)C)c3n2)CCO1` (racemic) [Example 11, (rac)-N-[(1H-benzimidazol-2-yl)methyl]-2-[2-methylmorpholin-4-yl]-8-(propan-2-yl)pyrazolo[1,5-a][1,3,5]triazin-4-amine], in assay [1], the DC50 stood at 14.5 nM. Further, the IC50 at CDK2/CycE was 5510 nM.
